Source: ChEMBL document CHEMBL1201862, “PubChem BioAssay data set” (2004)
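Each compound was tested at five concentrations against cells in 96-well plates for 48 hours. Abbreviation: GI50, concentration required for 50% inhibition of growth.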 Calls of active or inactive are those of the source. No stated cut-off is given here; in the data, active = GI50 up to about 1.1 µM and inactive = higher.

Tests used:
Test in all cases: NCI anticancer screen, dose series, 48 h
[1] = system: HOP-62
[2] = system: COLO 205
[3] = system: SN12C
[4] = system: ACHN
[5] = system: DU-145
[6] = system: SW-620
[7] = system: OVCAR-4
[8] = system: SF-295
[9] = system: KM12
[10] = system: HCC 2998
[11] = system: SK-OV-3
[12] = system: NCI-H23
[13] = system: RXF 393
[14] = system: SF-268
[15] = system: SNB-75
[16] = system: HT-29
[17] = system: HCT-116
[18] = system: UACC-62
[19] = system: K562
[20] = system: SNB-19

Measured: GI50

O=C(/C=C1\Nc2ccc([N+](=O)[O-])cc2N=C1NC12CC3CC(CC(C3)C1)C2)c1ccccc1
inactive: [1] > 10 µM | [2] > 10 µM | [3] > 10 µM | [4] > 10 µM | [5] > 10 µM | [6] > 10 µM | [7] 3.96 µM | [8] > 10 µM | [9] > 10 µM | [10] > 10 µM | [11] 3.77 µM | [12] > 10 µM | [13] 6.53 µM | [14] > 10 µM | [15] > 10 µM | [16] > 10 µM

CCOC(=O)c1nc2cc(C(F)(F)F)ccc2nc1Nc1ccc(F)cc1
inactive: [1] 96.6 µM | [2] 97.3 µM | [3] > 100 µM | [5] > 100 µM | [6] 74.1 µM | [7] 23.6 µM | [17] 96.8 µM | [8] 47.2 µM | [9] > 100 µM | [10] 19.6 µM | [11] 94.4 µM | [12] 74.1 µM | [13] 53.5 µM | [14] > 100 µM | [18] 25.5 µM | [15] 58.2 µM | [19] 13.3 µM | [16] 97.9 µM

CSc1nc2c(c(=O)[nH]1)N=C(c1ccccc1)CC(c1ccccc1)N2 (configuration not stated)
inactive: [1] 38.8 µM | [2] 41.7 µM | [3] 21.2 µM | [4] 25.6 µM | [5] 30.1 µM | [6] 50.8 µM | [7] 30.3 µM | [17] 29.6 µM | [8] 34.7 µM | [9] 14.1 µM | [10] 29.3 µM | [20] 39.1 µM | [11] 33.6 µM | [12] 31.3 µM | [13] 34.7 µM | [18] 23.6 µM | [15] 11.7 µM | [19] 23.4 µM | [16] 30.4 µM

O=C(/C=C\c1ccccc1-c1ccccc1)c1ccccc1
inactive: [1] > 100 µM | [2] > 100 µM | [3] > 100 µM | [4] > 100 µM | [5] > 100 µM | [6] > 100 µM | [7] 11.1 µM | [17] 66.5 µM | [8] > 100 µM | [9] 29.4 µM | [10] > 100 µM | [11] > 100 µM | [12] 33.3 µM | [13] 45.5 µM | [14] > 100 µM | [18] > 100 µM | [15] 61.8 µM | [19] > 100 µM | [16] > 100 µM

COc1cc2c(cc1O)C1Cc3ccc(OC)c(O)c3C(C2)N1C (configuration not stated)
inactive: [1] 92.9 µM | [2] > 100 µM | [3] > 100 µM | [4] > 100 µM | [5] > 100 µM | [6] > 100 µM | [7] > 100 µM | [17] > 100 µM | [8] > 100 µM | [9] > 100 µM | [10] > 100 µM | [20] > 100 µM | [11] > 100 µM | [12] > 100 µM | [13] > 100 µM | [14] > 100 µM | [18] > 100 µM | [16] 71 µM

CCSC1=N/C(=C/c2ccccc2O)C(=O)N1
inactive: [1] 41.1 µM | [2] > 100 µM | [3] 67.1 µM | [4] 39.2 µM | [5] > 100 µM | [6] > 100 µM | [17] > 100 µM | [8] 91 µM | [9] 51.1 µM | [10] > 100 µM | [20] > 100 µM | [11] 31.7 µM | [12] > 100 µM | [13] 26.4 µM | [14] 83.2 µM | [18] > 100 µM | [15] 25.1 µM | [19] 61 µM | [16] > 100 µM

c1csc(-c2sc(-c3ccsc3)cc2Cc2ccsc2)c1
inactive: [1] > 10 µM | [2] > 10 µM | [3] > 10 µM | [5] > 10 µM | [6] > 10 µM | [7] > 10 µM | [8] > 10 µM | [9] > 10 µM | [10] > 10 µM | [11] > 10 µM | [12] > 10 µM | [13] > 10 µM | [14] > 10 µM | [18] > 10 µM | [15] > 10 µM | [19] > 10 µM | [16] > 10 µM

COc1ccc(/C=N/N=C(\N)NO)c(OC)c1OC
inactive: [1] 32.7 µM | [2] 19.1 µM | [3] 34.4 µM | [4] 21.2 µM | [5] 12.8 µM | [6] 46.2 µM | [7] 53.7 µM | [17] 20.1 µM | [8] 31.6 µM | [9] 4.69 µM | [10] 17.2 µM | [20] > 100 µM | [11] 51.4 µM | [12] 31.3 µM | [13] 30.1 µM | [14] 24.7 µM | [18] 20.6 µM | [19] 23.2 µM | [16] 20.8 µM

O=C(NN=C1CCN(Cc2ccccc2)CC1)C(O)(c1ccccc1)c1ccccc1
inactive: [1] > 100 µM | [2] > 100 µM | [3] > 100 µM | [5] > 100 µM | [6] > 100 µM | [7] > 100 µM | [17] > 100 µM | [8] > 100 µM | [9] > 100 µM | [10] > 100 µM | [20] > 100 µM | [11] > 100 µM | [12] > 100 µM | [13] > 100 µM | [14] > 100 µM | [18] > 100 µM | [15] > 100 µM | [16] > 100 µM

CC(=O)NC(Cc1ccc(OP(=O)(OCc2ccc([N+](=O)[O-])o2)N(C)CCCCCl)cc1)C(=O)NC(C)c1ccc(OCC2CCCCC2)c(C(N)=O)c1 (configuration not stated)
inactive: [1] 9.66 µM | [2] 1.87 µM | [3] 2.34 µM | [4] 8.15 µM | [5] 3.74 µM | [6] 4.11 µM | [7] 3.66 µM | [17] 2.36 µM | [8] 4.74 µM | [9] 2.68 µM | [10] 1.82 µM | [20] 3.9 µM | [11] 11.5 µM | [12] 2.21 µM | [13] 2.02 µM | [14] 2.24 µM | [18] 2.31 µM | [19] 3.91 µM | [16] 2.25 µM

CC(C)C1=CCC2C(=C1)CCC1C(C)(C(=O)O)CCCC21C (configuration not stated)
inactive: [1] > 100 µM | [2] > 100 µM | [3] > 100 µM | [4] 94.8 µM | [5] > 100 µM | [6] > 100 µM | [7] 56.8 µM | [17] > 100 µM | [8] 97.7 µM | [9] 92.3 µM | [10] > 100 µM | [11] > 100 µM | [12] 81.1 µM | [13] > 100 µM | [14] > 100 µM | [18] > 100 µM | [15] > 100 µM | [16] 78.5 µM

COc1ccc(/C=C2\N/C(=N/N)N=C2Cl)cc1
inactive: [1] > 100 µM | [2] > 100 µM | [3] > 100 µM | [4] > 100 µM | [5] > 100 µM | [6] > 100 µM | [7] > 100 µM | [17] > 100 µM | [8] > 100 µM | [9] > 100 µM | [10] > 100 µM | [20] > 100 µM | [11] > 100 µM | [12] > 100 µM | [13] > 100 µM | [14] > 100 µM | [15] > 100 µM | [19] > 100 µM | [16] > 100 µM

CCCCCCCCCCCCCCCCOCC(Cl)CP(=O)(O)OP(=O)(O)OCC1OC(n2cnc3c(N)ncnc32)C(O)C1O (configuration not stated)
inactive: [1] > 100 µM | [2] > 100 µM | [3] > 100 µM | [4] > 100 µM | [5] > 100 µM | [6] > 100 µM | [7] > 100 µM | [17] 67 µM | [9] > 100 µM | [10] > 100 µM | [20] 60.3 µM | [11] > 100 µM | [12] > 100 µM | [13] 61.8 µM | [14] > 100 µM | [18] > 100 µM | [15] > 100 µM | [19] > 100 µM | [16] > 100 µM

CCC(CCCCC1CC[C@H]2CC(=O)C[C@@H]12)OC (some centres not stated)
inactive: [2] > 100 µM | [3] > 100 µM | [4] > 100 µM | [5] > 100 µM | [6] > 100 µM | [17] > 100 µM | [8] > 100 µM | [10] > 100 µM | [20] > 100 µM | [11] > 100 µM | [12] > 100 µM | [13] > 100 µM | [14] > 100 µM | [15] > 100 µM | [19] 26.5 µM | [16] > 100 µM

CN(C)Cc1cc(C(=O)/C=C/c2ccc(Cl)cc2Cl)cc(CN(C)C)c1O
inactive: [1] 3.54 µM | [2] 1.44 µM | [3] 1.78 µM | [4] 2.06 µM | [5] 4.73 µM | [6] 2.81 µM | [7] 2.22 µM | [17] 3.07 µM | [8] 3.34 µM | [9] 1.47 µM | [10] 5.89 µM | [20] 4.12 µM | [12] 6.9 µM | [13] 2.51 µM | [14] 3.88 µM | [15] 2.95 µM | [19] 1.48 µM | [16] 2.07 µM
